# Measured values published in publication PMC7823652 (Viruses, 2020).
# Like-named read-outs stand apart in the source and are kept apart here.
# Experiments:
# [1] = Cell viability assay (Resazurin), uninfected U87 cells; type: cell-based, Human; conditions: human, read-out: Viability CC50 [µM] (95%-CI); for CC50 at 24 h: uninfected U87, 24 h; for CC50 at 48 h: uninfected U87, 48 h; for CC50 at 72 h: uninfected U87, 72 h
# [2] = system: ZIKV; assay: Image-based phenotypic antiviral screen in ZIKV-infected U87 cells; type: cell-based, Zika virus (strain H/PF/2013); conditions: for inhibition at 10 µM: Zika virus, U-87 MG; for Infected Cells (U87, ZIKV) / Viral Titer (ZIKV): screen, U87 cells
# [3] = system: ZIKV; assay: Antiviral dose-response in ZIKV-infected U87 cells (infected cells, viral titer); type: cell-based, Zika virus (strain H/PF/2013); conditions: for EC50: U87, ZIKV MOI 1, 48 h
# [4] = in vitro; conditions: human
# [5] = system: HAZV; assay: microbe, parasite or virus in culture; type: cell-based, Hazara virus (isolate JC280); conditions: for inhibition at 10 µM: Hazara virus, SW13, 24 h; for Infected Cells (SW13, HAZV) / Viral Titer (HAZV): screen, SW13 cells
# [6] = Screen cytotoxicity by nuclei count in ZIKV-infected U87 cells; type: cell-based; conditions: human; for viability at 48 h, 10 µM / viability at 10 µM: ZIKV-infected U87 cells; for viability at 48 h, 10 µM: ZIKV MOI 10, compound 10 µM, nuclei count relative to DMSO; for viability at 10 µM: screen
# [7] = system: U87 cells; assay: Cell viability by nuclei count in ZIKV-infected U87 cells; type: cell-based, Human
# [8] = system: ZIKV; assay: Time course of ZIKV replication in U87 cells (vRNA, infected cells, titer)
# [9] = system: Vero cells; assay: Cell viability by nuclei count in ZIKV-infected Vero cells; type: cell-based, African Green Monkey
# [10] = system: ZIKV; assay: Time-of-addition assay in ZIKV-infected U87 cells; type: cell-based, Zika virus (strain H/PF/2013)
# [11] = system: ZIKV; assay: Antiviral dose-response in ZIKV-infected Vero cells; type: cell-based, Zika virus (strain H/PF/2013); conditions: Zika virus, 48 h
# [12] = system: U87 cells; assay: Cell viability assay (Resazurin), uninfected U87 cells; type: cell-based, Human; conditions: for CC50: read-out: Viability CC50 [µM] (95%-CI)
# [13] = system: ZIKV; assay: ZIKV infection (NS1 intensity) and viral titer in human cerebral organoids; type: cell-based, Zika virus (strain H/PF/2013); conditions: ZIKV 2 × 10^4 particles/organoid, 5 μM, all timepoints, relative to DMSO
# [14] = biological target: hOGG1 (Homo sapiens, UniProt O15527); assay: hOGG1 IC50 (listed in supplementary data, method not described); type: biochemical
# [15] = system: human brain organoids; assay: Viability and structure of ZIKV-infected human cerebral organoids; conditions: ZIKV 2 × 10^4 particles/organoid, 5 μM, 7 dpi and 10 dpi
# [16] = U87, ZIKV MOI 10, compound 10 µM, 48 h, relative to DMSO
# [17] = ZIKV MOI 10, compound 10 µM, 48 h, relative to DMSO
# [18] = U87, ZIKV MOI 10, compound 10 µM, 48 h, relative to DMSO, read-out: Inhibition of ZIKV titer (%)
# [19] = U87, ZIKV MOI 10, compound 10 µM, 48 h, relative to DMSO, read-out: Inhibition of primary ZIKV infection (%)
# [20] = Zika virus, U-87 MG, 48 h, read-out: Antiviral on primary infection IC50 [µM], ZIKV, U87, MOI 10, 48 h
# [21] = Zika virus, U-87 MG, 48 h, read-out: Antiviral on titer (µM) IC50 [µM], ZIKV, U87, MOI 10, 48 h
# [22] = Zika virus, U-87 MG, ZIKV NS1 staining, read-out: EC50 [μM] Infected cells
# [23] = Zika virus, U-87 MG, end-point dilution assay, read-out: EC50 [μM] Viral titer
# [24] = read-out: Inhibition of HAZV titer (%)
# [25] = read-out: Inhibition of primary HAZV infection (%)
# [26] = Homo sapiens, U-87 MG, 48 h, read-out: Viability (nuclei count) EC50 [µM]
# [27] = U87, ZIKV MOI 1, from 24 hpi and onwards
# [28] = U87, ZIKV MOI 10, 100 µM Ribavirin (positive control), 48 h
# [29] = ZIKV MOI 10, 100 µM Ribavirin (positive control), 48 h
# hOGG1, sequence (O15527 whole entry): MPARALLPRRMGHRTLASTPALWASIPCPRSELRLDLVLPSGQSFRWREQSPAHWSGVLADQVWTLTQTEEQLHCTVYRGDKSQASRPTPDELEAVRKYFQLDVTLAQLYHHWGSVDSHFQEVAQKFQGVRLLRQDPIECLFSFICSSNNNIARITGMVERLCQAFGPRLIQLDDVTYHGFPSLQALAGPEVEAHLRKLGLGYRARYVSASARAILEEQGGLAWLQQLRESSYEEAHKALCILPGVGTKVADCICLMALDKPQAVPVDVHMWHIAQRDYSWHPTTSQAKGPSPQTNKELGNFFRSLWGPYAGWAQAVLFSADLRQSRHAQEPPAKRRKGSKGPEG
compound,measurement,setting,value
O=C(Nc1ccc(I)cc1)N1CCC(n2c(=O)[nH]c3cc(Cl)ccc32)CC1 [TH3289],CC50 at 24 h,[1],> 50 µM
same,CC50 at 48 h,[1],> 50 µM
same,CC50 at 72 h,[1],34 µM
same,Viral Titer (ZIKV) (%),[2]; [16],4%
same,"Infected Cells (U87, ZIKV) (%)",[2]; [17],59%
same,inhibition at 10 µM,[2]; [18],96%
same,inhibition at 10 µM,[2]; [19],41%
same,"Infected Cells (U87, ZIKV)",[2],59%
same,Viral Titer (ZIKV),[2],4%
same,IC50,[3]; [20],2.8 µM
same,IC50,[3]; [21],2.5 µM
same,EC50,[3]; [22],2.8 µM
same,EC50,[3]; [23],2.5 µM
same,"viability at 24 h, 10 µM",[4],77%
same,inhibition at 10 µM,[5]; [24],95%
same,inhibition at 10 µM,[5]; [25],58%
same,"Infected Cells (SW13, HAZV)",[5],42%
same,Viral Titer (HAZV),[5],5%
same,"viability at 48 h, 10 µM",[6]; 48 h,92%
same,viability at 10 µM,[6],92%
same,EC50,[7]; [26],> 50 µM
"NC(=O)c1ncn([C@@H]2O[C@H](CO)[C@@H](O)[C@H]2O)n1 [Ribavirin, reference compound]",CC50 at 24 h,[1]; uninfected U87 cells,> 300 µM
same,CC50 at 48 h,[1]; uninfected U87 cells,> 300 µM
same,CC50 at 72 h,[1]; uninfected U87 cells,> 300 µM
same,intracellular vRNA levels,"[8]; U87, ZIKV MOI 1, all timepoints (24, 48, 72 h)",reduced
same,ZIKV titers,[8]; [27],reduced
same,extracellular vRNA,[8]; [27],reduced
same,EC50,"[9]; Chlorocebus sabaeus, MOI 10, 48 h",> 200 µM
same,EC50,"[9]; MOI 1, 48 h",> 200 µM
same,"reduction of ZIKV titers, post-inoculation step","[10]; U87, ZIKV MOI 10, 100 μM Ribavirin for 24 h after inoculation",80%
same,"effect on viral titer, later steps (budding)","[10]; U87, ZIKV MOI 10, 100 μM Ribavirin from 22 h for 2 h",no effect
same,"effect on viral titer, entry steps","[10]; U87, ZIKV MOI 10, 100 μM Ribavirin, pre-treatment and during inoculation",no effect
same,Inhibition of ZIKV titer (%),[2]; [28],63%
same,Inhibition of primary ZIKV infection (%),[2]; [28],60%
same,Viral Titer (ZIKV) (%),[2]; [28],37%
same,"Infected Cells (U87, ZIKV) (%)",[2]; [29],40%
same,"Infected Cells (U87, ZIKV)",[2],40%
same,Viral Titer (ZIKV),[2],37%
same,IC50,"[3]; Zika virus, U-87 MG, 48 h, ZIKV, U87, MOI 1, 48 h, read-out: Antiviral on primary infection IC50",60.7 µM
same,IC50,"[3]; Zika virus, U-87 MG, 48 h, ZIKV, U87, MOI 1, 48 h, read-out: Antiviral on titer (µM) IC50",52.8 µM
same,IC50,"[3]; Zika virus, U-87 MG, 48 h, ZIKV, U87, MOI 10, 48 h, read-out: Antiviral on primary infection IC50",59.2 µM
same,IC50,"[3]; Zika virus, U-87 MG, 48 h, ZIKV, U87, MOI 10, 48 h, read-out: Antiviral on titer (µM) IC50",31.1 µM
same,viability at 10 µM,[4],99%
same,"viability at 24 h, 10 µM",[4],99%
same,inhibition at 10 µM,[5]; [24],98%
same,inhibition at 10 µM,[5]; [25],47%
same,"Infected Cells (SW13, HAZV)",[5],53%
same,Viral Titer (HAZV),[5],2%
same,"viability at 48 h, 100 µM",[6]; [29],91%
same,IC50,"[11]; MOI 1, 48 h, read-out: Antiviral on primary infection IC50",52.6 µM
same,IC50,"[11]; MOI 1, 48 h, read-out: Antiviral on titer (µM) IC50",21 µM
same,IC50,"[11]; MOI 10, 48 h, read-out: Antiviral on primary infection IC50",65.1 µM
same,IC50,"[11]; MOI 10, 48 h, read-out: Antiviral on titer (µM) IC50",41 µM
same,EC50,"[7]; Homo sapiens, U-87 MG, ZIKV, U87, MOI 10, 48 h, read-out: Viability (nuclei count) EC50",> 200 µM
same,EC50,"[7]; ZIKV, U87, MOI 1, 48 h, read-out: Viability (nuclei count) EC50",> 200 µM
"O=C(Nc1ccc(I)cc1)N1CCC(n2c(=O)[nH]c3cc(C(F)(F)F)ccc32)CC1 [TH5264, N-(4-iodophenyl)-4-[2-oxo-5-(trifluoromethyl)-2,3-dihydro-1H-1,3-benzodiazol-1-yl]piperidine-1-carboxamide]",CC50 at 24 h,[1],> 50 µM
same,CC50 at 48 h,[1],> 50 µM
same,CC50 at 72 h,[1],31.5 µM
same,Viral Titer (ZIKV) (%),[2]; [16],2%
same,"Infected Cells (U87, ZIKV) (%)",[2]; [17],46%
same,inhibition at 10 µM,[2]; [18],98%
same,inhibition at 10 µM,[2]; [19],54%
same,"Infected Cells (U87, ZIKV)",[2],46%
same,Viral Titer (ZIKV),[2],2%
same,IC50,[3]; [20],2.7 µM
same,IC50,[3]; [21],3.2 µM
same,EC50,[3]; [22],2.7 µM
same,EC50,[3]; [23],3.2 µM
same,"viability at 24 h, 10 µM",[4],94%
same,"viability at 48 h, 10 µM",[6]; 48 h,86%
same,viability at 10 µM,[6],86%
same,EC50,[7]; [26],26.7 µM
O=C(Nc1ccc(I)cc1)N1CCC(n2c(=O)[nH]c3c(Br)cccc32)CC1 [TH5487],IC50,"[12]; U87, Resazurin, all measured time points (24, 48 or 72 h), read-out: IC50 (toxicity profile, cellular viability)",> 50 µM
same,CC50,"[12]; uninfected U87, 24 h",> 50 µM
same,CC50,"[12]; uninfected U87, 48 h",> 50 µM
same,CC50,"[12]; uninfected U87, 72 h",> 50 µM
same,EC50,"[3]; ZIKV NS1 staining, read-out: EC50 [μM] Infected cells",2.8 µM
same,EC50,"[3]; end-point dilution assay, read-out: EC50 [μM] Viral titer",2 µM
same,IC50,"[3]; ZIKV, U87, MOI 10, 48 h, read-out: Antiviral on primary infection IC50",2.8 µM
same,IC50,"[3]; ZIKV, U87, MOI 10, 48 h, read-out: Antiviral on titer (µM) IC50",2 µM
same,reduction of ZIKV progeny particles produced by the organoids,[13],60–70%
same,IC50,[14],0.142 µM
same,phenotypic rescue (retained structure of organoids),[15],phenotypic rescue
same,EC50,"[7]; ZIKV, U87, MOI 10, 48 h, read-out: Viability (nuclei count) EC50",35.2 µM
